In patent US5759573A, “Cyclodextrin liposomes encapsulating pharmacologic compounds and methods for their use” (DepoTech Corporation, priority 1995, dated 1998):

Columns and labels:
in vivo [1] = details: rat
Description: Rats were anesthetized with ketamine HCl (90 mg/kg and acetopromazine maleate (2.2 mg/kg, injected intramuscularly) and mounted in a conventional stereotaxic frame. Using a No. 15 blade, a midline cutaneous incision approximately 1 cm in length was made from the occipital crest to just behind the ears. The muscle ligament along the occipital crest at the skull was detached with a scalpel for 4 mm on either side of the midline. Using both the sharp and blunt ends of a periosteal elevator, the muscle from the occipital bone was freed down to the atlanto-occipital membrane. A retractor was placed in the incision to draw the muscle aside and obtain a clear view of the atlanto-occipital membrane. […] The needle was withdrawn, the skin was sutured with 3-0 silk, and the animal was given 10 ml lactated Ringer'solution subcutaneously for hydration.
At appropriate time points after injection, the atlanto-occipital membrane was again exposed under anesthesia and a sample of cerebrospinal fluid ranging from 30 to 60 μl was obtained through a 19-gauge needle. […] The cerebrospinal fluid samples were then kept frozen at -20° C. until analyzed using a high-performanceliquid chromatography (HPLC) system as described below.
After cerebrospinal fluid sampling, the animals were sacrificed with an overdose of ketamine (90 mg/kg) and acetopromazine (20 mg/kg), injected intraperitoneally. Blood samples were obtained via cardiac puncture and thorough exsanguination was performed. […] The calvarium was then exposed and carefully removed with a bone rongeur. The entire content of the cranial compartment was collected by scooping out the exposed brain with a spatula and washing the cranial vault thoroughly with distilled water. The spinal compartment content was then collected separately; the spinal cord was extruded forward into the cranial vault by pushing distilled water rapidly through a 19-gauge needle inserted into the lower lumbar spinal canal at a point 2.5 cm rostral to the origin of the tail. […] The cranial compartment samples were analyzed separately from the spinal canal samples. Both tissue samples were homogenized with water using a Polytron homogenizer.
The homogenized samples of brain or spinal cord were analyzed with HPLC after extraction as described by Alkayal et al. Ther. Drug Monit. 12:191 (1990). Briefly, in a glass centrifuge tube, a 500 μl aliquot of homogenate, 100 μl of theophylline aqueous solution (internal standard, 2.0 mg/ml), 250 μl trichloroacetic acid solution (10% in water), and 250 μl glacial acetic acid were placed and mixed. […] Ethyl acetate organic phase was decanted and evaporated under nitrogen at 60° C. The extracted residue was dissolved in 200 μl of mobile phase and 100 μl of the resulting solution was injected into the HPLC.
The RSTRIP computer program (MicroMath Scientific Software, Salt Lake City, Utah) was used to perform the pharmacokinetics analysis.

L1210 leukemia [2] = assay: Efficacy of single subcutaneous dose in murine L1210 model (increased life span); assay type: in vivo, mouse (BDF1); details: L1210, single sc dose on Day 1, increased life span
Source text: BDF1 and DBA/2J mice were from Simonsen Laboratories, Gilroy, Calif. The L1210 leukemia was maintained by serial intraperitoneal passage in DBA/2J female mice.
(§1) Five animals were in each group except for the control (given 0.9% NaCl alone), where 10 animals were used. […] Median survival time was used to calculate the "increased life span" (ILS) according to the formula: […]
where T is the median survival time of treated groups and C is the median survival time for control groups.
(§2) The LD50 was calculated after probit transformation.

in vivo [3] = details: mouse, sc
Description: as §1, §2

L1210 leukemia [4] = assay: Efficacy of single intraperitoneal dose in murine L1210 model (increased life span); assay type: in vivo, mouse (BDF1); details: L1210, single ip dose on Day 1, increased life span
Description: (§3) There were five mice per group and fifteen mice were used as untreated controls (given 1 ml of 0.9% NaCl solution). The result was expressed as "increased life span".

[5] = Toxicity and therapeutic index of single intraperitoneal dose; parameters: species or system mouse (BDF1); details: in vivo; mouse, single ip dose, probit transformation
Description: as §3
LD50 was calculated after probit transformation by PHARM/PCS program (MicroComputer Specialists, Philadelphia, Pa.). […] The therapeutic index (TI) for single IP dosage was calculated by the equation: […]

[6] = estimated from studies in vitro; read-out: minimal cytotoxic concentration; cited from earlier work
[7] = cited from earlier work
in vivo [8] = details: mouse, sc, 10 mg/kg
Description: (§4) Subcutaneous (sc) pharmacokinetic studies were done using male BDF1 mice, weighing 20-25 grams. […] At each time point, 3 animals were sacrificed.
(§5) A full thickness of the abdominal wall tissue, including the entire skin and the underlying peritoneal membrane, was then excised from the costal margin to the inguinal area and from one flank to the other. The entire tissue specimen was homogenized after addition of at least 20 ml of distilled water with a Polytron homogenizer. The homogenate was sonicated for 60 seconds at a maximum setting with a Biosonic IV probe sonicator and filtered through a YMT ultrafiltration membrane (Amicon Corp, product #4104). All the samples were kept at -20° C. until assayed by HPLC. The RSTRIP program was used to perform the curve fitting. AUC was determined by linear trapezoidal rule up to the last measured concentration and extrapolated to infinity.

in vivo [9] = details: mouse, ip, 10 mg/kg
Description: (§6) The in vivo studies were done on male BDF1 mice weighing 18-25 g. […] The Emit^R assay is a homogeneous enzyme immunoassay technique based on the competition between drug present in the sample and drug labeled with the enzyme glucose-6-phosphate dehydrogenase for antibody binding sites. The limit of sensitivity was 0.02 μM.
(§7) Five μl of the peritoneal fluid samples were collected into a glass capillary pipette and diluted into 140 μl of 0.9% NaCl solution. […] Fifty μl of methanol was added to the pellet and vortexed to break multivesicular particles. The peritoneal cavities were then washed out thoroughly with 2-3 ml of 0.9% NaCl solution thrice. All samples were kept frozen at -20° C. until assayed by HPLC. Extraction of the samples was not necessary, no internal standard was used and there were no interfering peaks. RSTRIP computer program was used to analyze pharmacokinetic data. The area under the curve was determined by linear trapezoidal rule up to the last measured concentration and extrapolated to infinity.

[10] = Subcutaneous pharmacokinetics in BDF1 mice; details: mouse, 10 mg/kg sc
Description: as §4, §5

[11] = Intraperitoneal pharmacokinetics in BDF1 mice; details: mouse, 10 mg/kg ip
Description: as §6, §7

## CN(Cc1cnc2nc(N)nc(N)c2n1)c1ccc(C(=O)N[C@@H](CCC(=O)O)C(=O)O)cc1 [unencapsulated methotrexate, methotrexate]
In vivo [1]
  Amount t1/2 (total amount of drug within CNS): 43 min
  concentration at 4 h: 0.11 ± 0.02 µM
In vivo [1]; Amount t1/2 (total amount of drug within CNS)
  half-life: 43.2 min
In vivo [1]; Conc. t1/2 α (initial half-life, CSF)
  half-life: 34.6 min
In vivo [1]; Conc. t1/2 β (terminal half-life, CSF)
  half-life: 432 min
L1210 leukemia [2]
  maximum efficacy (ILS max): 183%
In vivo [3]
  LD50: 2650 mg/kg
L1210 leukemia [4]
  maximum efficacy (ILS max): 100%
[5]
  LD50: 2760 mg/kg
[6]
  MCC: 500 nM
[7]; im or sc
  absorption after im or sc administration (in words): much more predictable and complete
  serum concentrations after im or sc versus oral dose (in words): higher serum concentrations than after an oral dose
[7]; patients, oral
  absorption rate after oral administration (in words): highly variable among patients and appears to be saturable
In vivo [8]; plasma
  AUC(0-inf): 17.3 µM·h
  Cmax: 17.4 ± 5.2 µM
  Tmax: 15 min
  half-life: 31.8 min
In vivo [8]; skin at injection site
  half-life: 9.6 min
In vivo [9]; peritoneal fluid
  AUC(0-inf): 233 µM·h
  Cmax: 430 ± 13 µM
  half-life: 32.4 min
In vivo [9]; plasma
  AUC(0-inf): 11.2 µM·h
  half-life: 54 min
[10]; injection site
  Amount t1/2 (total amount of methotrexate in skin): 9.6 min
[10]; plasma
  Conc. t1/2 (plasma half-life): 31.8 min
[11]; total amount for MVL-CD-MTX
  Peritoneal Amount t1/2: 27 min
[11]; unencapsulated drug or complex, or free methotrexate after MVL-CD-MTX
  Peritoneal Conc. t1/2: 32.4 min
